One data set concerns the target T1, aldose reductase (Sus scrofa, UniProt P80276).
T1 construct: porcine crystalline lens stored at -80° C. was homogenized in distilled water; from tissue; host or cells: porcine crystalline lens
The data set can be described thus: Aldose reductase inhibitory activity (porcine crystalline lens enzyme). The format is biochemical. The method, then:
Aldose reductase enzyme standard was prepared from porcine crystalline lens by the method of Hayman et al. (cf., S. Hayman et al., Journal of Biological Chemistry, 240, 877-882, 1965). That is, porcine crystalline lens stored at -80° C. was homogenized in distilled water followed by centrifugation at 10,000 XG for 15 minutes. The supernatant was dissolved to make 40% ammonium sulfate solution. The supernatant centrifuged at 10,000 XG for further 10 minutes was dialyzed to 0.05 M sodium chloride solution overnight. The thus obtained dialysate was used as the enzyme standard.
The activity of aldose reductase was determined by the method of Hayman et al. supra. That is, 25 μl of the enzyme solution described above and […] of a drug solution in 1% DMSO having various concentrations were added to 200 μl of 40 mM phosphate buffer (pH 6.2) prepared to contain […] lithium sulfate and 0.1 MM NADPH (reduced nicotinamide adenine dinucleotide phosphate) in final concentrations and Containing 3 mM d1-glyceraldehyde as substrate, respectively. Thereafter, the mixture was reacted at 25° C. for 2 minutes and change in absorbance at 340 nm was determined using COBAS FARA II (Roche Co.).

The test system of data set [1] is sorbitol in lens withdrawn from rat. Kind of data set: Activity for preventing accumulation of sorbitol in lens withdrawn from rat. Type of data set: cell-based, SD rat. Conditions: 50 mM glucose, 10^-6 M test drug, 4 hours, 1% DMSO = 100%, read-out: Sorbitol Content (%). The method, then: 2) Activity for preventing accumulation of sorbitol in lens withdrawn from rat
The lens withdrawn from SD rats of 7 to 8 weeks age was incubated in 2.0 ml of Kreb's solution (pH 7. 4) containing 50 mM glucose and 10^-6 M test drug for 4 hours. The sorbitol content formed in the tissue was assayed by the enzyme method of Bergmeyer et al. [cf., H. Y. Bergmeyer et al., Methods of Enzymatic Analysis, 3, 1323-1330, 19741 using SDH (Sorbitol dehydrogenase) and AND (β-nicotinamide adenine dinucleotide). The sorbitol content was made 100% when 1% DMSO as a solvent was added in place of the drug and the activity of the drug was determined.

For data set [2], the system named is tissue sorbitol in streptozotocin-induced diabetic rats. The data set can be described thus: Inhibitory activity of accumulation of tissue sorbitol in streptozotocin-induced diabetic rats. The format is in vivo, Sprague-Dawley rats. The following applies: 30 mg/kg oral 4, 8 and 24 hours after streptozotocin, control = 100%, Tukey's test *p < 0.05, **p < 0.01; for Accumulation of Tissue Sorbitol (%), Nerve: sciatic nerve. The method, then:
4) Inhibitory activity of accumulation of tissue sorbitol in streptozatocini-induced diabetic rats.
Sprague-Dawley rats (male,6 weeks of age, one group composed of 5 to 6 rats), fasted overnight, were made diabetic by single intravenous injection of 60 mg/kg body weight of streptozotocin (SIGMA Co. ) , which had been freshly dissolved in normal saline solution.
The compound was orally administered in the form of 0.5% carboxymethylcellulose suspension in a dose of 30 mg/kg 4, 8 and 24 hours after the injection of streptozotocin. During the test, rats were free access to feed and water. Three hours after the final administration, the sorbitol contens in tissues (red blood cell, sciatic nerve, lens) Were determined by the enzyme method of Bergmeyer et al. [cf., H. Y. Bergmeyer et al., Methods of Enzymatic Analysis, 3, 1323-1330, 1974], using SDH (sorbitol dehydrogenase) and AND (β-nicotinamide adenine dinucleotide). The results are shown by percentage (%) when the value obtained with control group administered with 0.5% carboxymethylcellulose solution as a solvent instead of the compound was made 100%.

Data set [3] addresses T2, human placenta aldose reductase (Homo sapiens, UniProt P15121).
T2 construct: The aldose reductase enzyme standard was prepared from human placenta; from tissue; host or cells: human placenta
Kind of data set: Aldose reductase of human origin inhibitory activity. The format is biochemical. Conditions: for IC50: d1-glyceraldehyde 3 mM, pH 6.2, 25° C., read-out: IC50 HPAR (human placenta aldose reductase; head prints HPAP); for Ratio HPALR/HPAR: ratio of IC50 aldehyde reductase to aldose reductase, human placenta. The method, then: (§1) That is, human placenta stored at -80° C. was homogenized in distilled water followed by centrifugation at 10,000 XG for 15 minutes. […] The dialysate was applied to DEAE-cellulose column. The fraction containing aldose reductase activity eluted by salt concentration gradient was dialyzed and used as aldose reductase enzyme standard. Furthermore, after fractionation with ammonium sulfate solution, the dialysate was applied to Red Sepharose CL-6B, the fraction containing aldehyde reductase activity eluted by salt concentration gradient was dialyzed and used as aldehyde reductase enzyme standard.
That is, 25 μl of the enzyme solution described above and 25 μl of a drug solution in 1% DMSO having various concentrations were added to 200 μl of 40 Mm phosphate buffer (pH 6.2) prepared to contain 0.4 M lithium sulfate and 0.1 mM NADPH (reduced nicotinamide adenine dinucleotide phosphate) in final concentrations and containing 3 mM d1-glyceraldehyde as substrate, respectively.

The target in data set [4] is T3, human placenta aldehyde reductase (Homo sapiens, UniProt P14550).
T3 construct: the fraction containing aldehyde reductase activity eluted by salt concentration gradient was dialyzed and used as aldehyde reductase enzyme standard; from tissue; host or cells: human placenta
T3 sequence (P14550 1-325): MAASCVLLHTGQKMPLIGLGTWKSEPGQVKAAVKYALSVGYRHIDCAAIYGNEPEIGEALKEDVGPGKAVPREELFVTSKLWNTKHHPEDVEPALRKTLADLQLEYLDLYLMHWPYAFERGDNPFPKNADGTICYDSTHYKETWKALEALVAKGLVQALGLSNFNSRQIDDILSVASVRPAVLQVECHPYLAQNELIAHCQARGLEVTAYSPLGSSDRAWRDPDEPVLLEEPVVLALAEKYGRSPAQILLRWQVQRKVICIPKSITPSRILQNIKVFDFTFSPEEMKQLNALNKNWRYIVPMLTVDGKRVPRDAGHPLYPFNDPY
Kind of data set: Aldehyde reductase of human origin inhibitory activity (specificity). Type of data set: biochemical. The following applies: 15 mM glucuronate, pH 7.0, read-out: 10 μM inhibition % HPALR. The method, then: as §1
That is, the activity was determined in a manner similar to the case of determining aldose reductase activity, using 200 mM phosphate buffer (pH 7.0) prepared to contain 0.1 mM NADPH in a final concentration and 15 mM glucuronate as substrate.

Another data set relates to ICR strain mice. Kind of data set: Safety test, single oral administration in mice with 14 days observation. The format is in vivo. Conditions: 300 mg/kg oral, male ICR mice. On the procedure:
Next, safety of the compounds of the present invention was verified by the following test.
After normal ICR strain mice (male, 7 weeks age, 5 mice being into one group) was fasted for 18 hours, each compound (300 mg/kg) of Examples 1311, 132, 134, 156, 173, 179, 183 and 188 was orally administered in the form of 0.5% carboxymethylcellulose suspension. In the control group, 0.5% carboxymethylcellulose solution alone was orally administered. […] During the observation, mice were free access to feed and water.

Where [5] appears, read: d1-glyceraldehyde 3 mM, pH 6.2, 25° C., 2 minutes.

The structures appear in SMILES notation. Like-named read-outs stand apart in the source and are kept apart here. Where only a bound is given, the exact number is not on record here.

One may read the inhibition as the share of the control response that was lost under treatment.

In the case of `CC(C)c1cccc2c1OC(C(C)C)C(=S)N2CC(=O)O` (stereo not drawn) [Compound A, 3,4-dihydro-2,8-diisopropyl-3-thioxo-2H-1,4-benzoxazine-4-acetic acid, reference compound], on aldose reductase (setting [5]), the IC50 was 21 nM. Besides, in data set [1], the activity at 1 µM was determined as 56%. In data set [2], the “Accumulation of Tissue Sorbitol (%), Lens” value (from here on “Accumulation … (%), Lens”) worked out at 87.3%; the “Accumulation of Tissue Sorbitol (%), Red Blood Cell” value (“Accumulation … (%), Red Blood Cell” for short) is on record as 53.7%; the “Accumulation of Tissue Sorbitol (%), Nerve” value (shortened to “Accumulation … (%), Nerve”) was determined as 54.9%.

In the case of `Cc1ccc2c(c1)N(Cc1nc3c(F)c(F)cc(F)c3s1)C(=O)C(CC(=O)O)S2` (stereo not drawn) [Example 165, 2-[4-(4,5,7-Trifluorobenzothiazol-2-yl)methyl-6-methyl-3,4-dihydro-3-oxo-2H-1,4-benzothiazin-2-yl]acetic acid], in data set [3], the IC50 came out at 12 nM and the “Ratio HPALR/HPAR” value is given as > 833. For the same compound, the inhibition at 10 µM in data set [4] turned out to be 32.9%.

`O=C(O)CC1Sc2c(F)cccc2N(Cc2nc3c(Cl)c(Cl)ccc3s2)C1=O` (stereo not drawn) [Example 167, 2-[4-(4,5-Dichlorobenzothiazol-2-yl)methyl-8-fluoro-3,4-dihydro-3-oxo-2H-1,4-benzothiazin-2-yl]acetic acid]: in data set [3], the IC50 was 13 nM and the “Ratio HPALR/HPAR” value is on record as > 769. In addition, the inhibition at 10 µM in data set [4] was 28.6%.

As to `O=C(O)CC1Sc2ccccc2N(Cc2nc3c(F)c(F)cc(F)c3s2)C1=O` (stereo not drawn) [Example 183, 2-[4-(4,5,7-Trifluorobenzothiazol-2-yl)methyl-3,4-dihydro-3-oxo-2H-1,4-benzothiazin-2-yl]acetic acid], the IC50 at aldose reductase (read-out: IC50 (50% inhibitory concentration, aldose reductase), d1-glyceraldehyde 3 mM, pH 6.2, 25° C., 2 minutes) is 9.5 nM. Besides, in data set [1], the activity at 1 µM was found to be 29%. Further, in data set [3], the IC50 came out at 10 nM and the “Ratio HPALR/HPAR” value was > 1000. The inhibition at 10 µM in data set [4] is 19.3%. In data set [2], the “Accumulation … (%), Lens” value is reported as 39.1%; the “Accumulation … (%), Red Blood Cell” value came out at 25.8%; the “Accumulation … (%), Nerve” value is listed as 3.1%. Moreover, in the data set with ICR strain mice, the body weight result was “progressed as in the control group” and the mice dead result is on record as “none”.

With `O=C(O)CC1Sc2cc(F)ccc2N(Cc2nc3c(F)c(F)cc(F)c3s2)C1=O` (stereo not drawn) [Example 188, 2-[4-(4,5,7-Trifluorobenzothiazol-2-yl)methyl-7-fluoro-3,4-dihydro-3-oxo-2H-1,4-benzothiazin-2-yl]acetic acid], the IC50 against aldose reductase (setting [5]) turned out to be 9.7 nM. Besides, in data set [1], the activity at 1 µM was determined as 38%. In addition, in data set [3], the IC50 was determined as 14 nM and the “Ratio HPALR/HPAR” value was > 714. In data set [4], the inhibition at 10 µM was found to be 19.1%. For the same compound, in data set [2], the “Accumulation … (%), Lens” value is 32.5%; the “Accumulation … (%), Red Blood Cell” value stood at 15.7%; the “Accumulation … (%), Nerve” value amounted to 0.0%. Besides, in the data set with ICR strain mice, the body weight entry is “progressed as in the control group” and the mice dead entry was “none”.

At aldose reductase (setting [5]), `O=C(O)CC1Sc2ccccc2N(Cc2nc3c(F)c(F)ccc3s2)C1=O` (stereo not drawn) [Example 189, 2-[4-(4,5-Difluorobenzothiazol-2-yl)methyl-3,4-dihydro-3-oxo-2H-1,4-benzothiazin-2-yl]acetic acid] registered an IC50 of 9.9 nM. The activity at 1 µM in data set [1] was determined as 37%. Moreover, in data set [3], the IC50 was 9.3 nM and the “Ratio HPALR/HPAR” value is listed as > 1075. Besides, in data set [4], the inhibition at 10 µM was found to be 18.5%. Also, in data set [2], the “Accumulation … (%), Lens” value is 30.7%; the “Accumulation … (%), Red Blood Cell” value was found to be 16.6%; the “Accumulation … (%), Nerve” value is 1.1%.

The record behind these values is US5252571A, “1,4-benzothiazine-2-acetic acid derivatives” (Sapporo Breweries Limited, priority 1990, dated 1993).
